Data taken from publication PMC5933747 (PLoS ONE, 2018).
Read-outs that look alike come from different tables or passages of the source.

Tests used:
Format in all cases: cell-based
human NaV1.7 = human NaV1.7 (Homo sapiens, UniProt Q15858); test: IonWorks Quattro (IWQ) electrophysiology, human NaV1.7; settings: read-out: Glu mutant IWQ IC50 NaV1.7
human NaV1.4 = human NaV1.4 (Homo sapiens, UniProt P35499); test: IonWorks Quattro (IWQ) electrophysiology, human NaV1.4
human NaV1.5 = human NaV1.5 (Homo sapiens, UniProt Q14524); test: IonWorks Quattro (IWQ) electrophysiology, human NaV1.5
human NaV1.5, sequence (Q14524 whole entry): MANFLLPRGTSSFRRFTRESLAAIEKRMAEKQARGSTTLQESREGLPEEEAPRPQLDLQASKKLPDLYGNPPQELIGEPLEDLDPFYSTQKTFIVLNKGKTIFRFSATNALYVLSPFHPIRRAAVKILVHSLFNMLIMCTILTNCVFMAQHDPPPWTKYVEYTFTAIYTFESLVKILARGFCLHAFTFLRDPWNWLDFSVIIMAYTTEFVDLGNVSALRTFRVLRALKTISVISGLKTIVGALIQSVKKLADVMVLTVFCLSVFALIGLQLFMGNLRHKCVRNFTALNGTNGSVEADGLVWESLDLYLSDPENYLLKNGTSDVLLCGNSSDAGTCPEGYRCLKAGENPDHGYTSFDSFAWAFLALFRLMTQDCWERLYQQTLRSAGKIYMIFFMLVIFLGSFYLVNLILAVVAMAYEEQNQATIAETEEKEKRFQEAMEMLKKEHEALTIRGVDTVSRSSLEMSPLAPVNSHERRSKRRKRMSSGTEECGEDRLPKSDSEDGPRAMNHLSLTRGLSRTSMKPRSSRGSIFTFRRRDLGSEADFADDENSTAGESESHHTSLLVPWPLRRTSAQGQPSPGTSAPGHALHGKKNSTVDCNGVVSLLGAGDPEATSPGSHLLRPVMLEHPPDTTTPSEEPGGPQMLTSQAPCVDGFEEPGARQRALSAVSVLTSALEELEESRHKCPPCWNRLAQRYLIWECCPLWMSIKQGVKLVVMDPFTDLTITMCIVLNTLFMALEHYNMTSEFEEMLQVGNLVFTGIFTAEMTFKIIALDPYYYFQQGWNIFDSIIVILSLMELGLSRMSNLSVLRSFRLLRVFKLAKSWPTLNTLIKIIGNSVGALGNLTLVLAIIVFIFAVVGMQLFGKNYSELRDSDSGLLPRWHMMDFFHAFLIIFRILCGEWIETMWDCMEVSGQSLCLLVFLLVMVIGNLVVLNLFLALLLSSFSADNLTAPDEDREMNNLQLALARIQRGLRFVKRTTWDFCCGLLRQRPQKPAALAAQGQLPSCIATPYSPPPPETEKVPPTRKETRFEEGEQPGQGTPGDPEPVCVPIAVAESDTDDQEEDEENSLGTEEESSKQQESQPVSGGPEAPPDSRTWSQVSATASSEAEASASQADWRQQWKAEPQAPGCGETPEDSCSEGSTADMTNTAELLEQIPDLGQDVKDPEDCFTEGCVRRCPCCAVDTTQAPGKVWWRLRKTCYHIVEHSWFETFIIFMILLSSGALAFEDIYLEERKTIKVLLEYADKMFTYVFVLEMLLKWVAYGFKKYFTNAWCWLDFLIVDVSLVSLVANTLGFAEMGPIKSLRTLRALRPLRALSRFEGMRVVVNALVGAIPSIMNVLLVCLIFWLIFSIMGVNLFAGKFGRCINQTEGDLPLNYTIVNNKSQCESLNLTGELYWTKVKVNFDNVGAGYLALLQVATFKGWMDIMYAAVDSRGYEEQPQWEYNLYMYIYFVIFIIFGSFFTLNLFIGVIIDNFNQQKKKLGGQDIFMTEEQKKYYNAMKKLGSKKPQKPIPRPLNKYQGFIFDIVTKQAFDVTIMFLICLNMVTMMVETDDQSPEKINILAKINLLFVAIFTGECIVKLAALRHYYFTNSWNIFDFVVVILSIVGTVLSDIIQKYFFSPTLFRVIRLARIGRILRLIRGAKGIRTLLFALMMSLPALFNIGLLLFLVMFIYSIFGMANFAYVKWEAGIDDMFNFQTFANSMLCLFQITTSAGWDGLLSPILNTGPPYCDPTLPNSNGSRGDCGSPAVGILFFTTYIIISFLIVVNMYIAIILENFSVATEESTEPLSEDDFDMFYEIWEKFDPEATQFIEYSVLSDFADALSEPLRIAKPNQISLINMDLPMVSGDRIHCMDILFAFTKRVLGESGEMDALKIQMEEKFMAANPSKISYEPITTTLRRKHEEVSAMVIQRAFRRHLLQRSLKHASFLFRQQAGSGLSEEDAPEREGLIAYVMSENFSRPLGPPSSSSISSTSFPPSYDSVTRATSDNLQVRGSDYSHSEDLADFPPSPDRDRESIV

[1] = read-out: Glu mutant IWQ IC50 NaV1.4
[2] = read-out: Glu mutant IWQ IC50 NaV1.5
[3] = human, read-out: Glu mutant IWQ IC50 NaV1.5
[4] = read-out: Ala mutant IWQ IC50 NaV1.4
[5] = human, read-out: Ala mutant IWQ IC50 NaV1.5

human NaV1.4, sequence (P35499 whole entry): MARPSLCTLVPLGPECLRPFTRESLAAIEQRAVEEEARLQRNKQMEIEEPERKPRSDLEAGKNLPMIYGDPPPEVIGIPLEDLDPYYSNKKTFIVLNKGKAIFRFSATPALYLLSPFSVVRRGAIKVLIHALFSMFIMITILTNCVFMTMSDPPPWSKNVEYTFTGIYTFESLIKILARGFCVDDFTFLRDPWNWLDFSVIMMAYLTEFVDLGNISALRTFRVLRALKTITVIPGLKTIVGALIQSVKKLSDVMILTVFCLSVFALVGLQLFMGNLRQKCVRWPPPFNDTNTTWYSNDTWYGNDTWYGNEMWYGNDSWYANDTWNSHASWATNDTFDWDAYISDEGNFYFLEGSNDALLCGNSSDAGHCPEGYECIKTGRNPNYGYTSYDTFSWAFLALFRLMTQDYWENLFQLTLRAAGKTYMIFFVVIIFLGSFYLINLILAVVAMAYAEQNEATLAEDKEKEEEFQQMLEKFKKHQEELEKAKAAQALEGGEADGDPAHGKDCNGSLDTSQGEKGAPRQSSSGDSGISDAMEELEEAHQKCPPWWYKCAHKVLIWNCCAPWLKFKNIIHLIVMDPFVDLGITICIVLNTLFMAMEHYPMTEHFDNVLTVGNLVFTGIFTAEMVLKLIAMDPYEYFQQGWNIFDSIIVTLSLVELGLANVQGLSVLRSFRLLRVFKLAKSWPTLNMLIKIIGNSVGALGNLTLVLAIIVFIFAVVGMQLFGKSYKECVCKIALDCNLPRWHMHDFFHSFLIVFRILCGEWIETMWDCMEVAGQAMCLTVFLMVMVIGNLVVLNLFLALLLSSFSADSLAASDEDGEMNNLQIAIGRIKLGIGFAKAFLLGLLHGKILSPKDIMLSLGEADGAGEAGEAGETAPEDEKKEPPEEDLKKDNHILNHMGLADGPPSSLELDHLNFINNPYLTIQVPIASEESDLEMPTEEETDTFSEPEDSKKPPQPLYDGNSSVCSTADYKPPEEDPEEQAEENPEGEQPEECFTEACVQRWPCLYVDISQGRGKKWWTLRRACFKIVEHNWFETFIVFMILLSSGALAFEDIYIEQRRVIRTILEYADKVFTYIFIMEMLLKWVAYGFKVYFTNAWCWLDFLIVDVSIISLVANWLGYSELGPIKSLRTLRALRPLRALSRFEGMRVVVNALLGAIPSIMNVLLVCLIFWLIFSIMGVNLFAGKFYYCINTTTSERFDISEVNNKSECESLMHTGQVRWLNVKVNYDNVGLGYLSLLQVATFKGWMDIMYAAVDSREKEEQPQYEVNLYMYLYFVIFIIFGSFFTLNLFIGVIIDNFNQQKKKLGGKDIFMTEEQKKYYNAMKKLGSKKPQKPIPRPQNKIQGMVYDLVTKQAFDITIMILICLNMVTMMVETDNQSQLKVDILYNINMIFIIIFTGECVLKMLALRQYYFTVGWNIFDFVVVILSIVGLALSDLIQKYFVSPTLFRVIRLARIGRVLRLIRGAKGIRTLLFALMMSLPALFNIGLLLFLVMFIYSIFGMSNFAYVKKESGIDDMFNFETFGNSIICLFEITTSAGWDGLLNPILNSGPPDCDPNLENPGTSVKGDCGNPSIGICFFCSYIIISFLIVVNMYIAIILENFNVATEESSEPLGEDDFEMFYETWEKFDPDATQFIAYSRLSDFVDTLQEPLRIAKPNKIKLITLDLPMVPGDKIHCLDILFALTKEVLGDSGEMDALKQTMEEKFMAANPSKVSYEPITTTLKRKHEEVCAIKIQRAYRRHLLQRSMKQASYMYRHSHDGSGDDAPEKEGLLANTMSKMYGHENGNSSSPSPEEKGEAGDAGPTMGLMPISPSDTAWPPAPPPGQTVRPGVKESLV

CC[C@H](C)[C@H](NC(=O)[C@@H](NC(=O)[C@H](CCCCN)NC(=O)[C@H](CCCNC(=N)N)NC(=O)[C@@H]1CSSC[C@@H]2NC(=O)[C@H](C)NC(=O)[C@H](CCCNC(=N)N)NC(=O)[C@H](CCCCN)NC(=O)[C@H](CO)NC(=O)[C@H](CC(=O)O)NC(=O)[C@@H]3CSSC[C@H](NC(=O)[C@H](CCCNC(=N)N)NC(=O)[C@H](CC(C)C)NC(=O)CNC(=O)[C@H](CCC(=O)O)NC(=O)[C@H](CSSC[C@H](NC(=O)[C@@H](N)Cc4ccc(O)cc4)C(=O)N[C@@H](CCC(N)=O)C(=O)N[C@@H](CCCCN)C(=O)N[C@@H](Cc4c[nH]c5ccccc45)C(=O)N[C@@H](CCSC)C(=O)N[C@@H](Cc4c[nH]c5ccccc45)C(=O)N[C@@H]([C@@H](C)O)C(=O)N3)NC2=O)C(=O)N[C@@H](CCC(=O)O)C(=O)N[C@@H](CC(C)C)C(=O)N[C@@H](Cc2c[nH]c3ccccc23)C(=O)N1)[C@@H](C)CC)C(N)=O [K22 Glu mutant]
IC50 (human NaV1.7): 0.662 µM | IC50 (human NaV1.4; [1]): > 10 µM | IC50 (human NaV1.5; [2]): > 10 µM

CC[C@H](C)[C@H](NC(=O)[C@@H](NC(=O)[C@H](CCCCN)NC(=O)[C@H](CCCNC(=N)N)NC(=O)[C@@H]1CSSC[C@@H]2NC(=O)[C@H](C)NC(=O)[C@H](CCCNC(=N)N)NC(=O)[C@H](CCCCN)NC(=O)[C@H](CO)NC(=O)[C@H](CC(=O)O)NC(=O)[C@@H]3CSSC[C@H](NC(=O)[C@H](CCCNC(=N)N)NC(=O)[C@H](CCC(=O)O)NC(=O)CNC(=O)[C@H](CCC(=O)O)NC(=O)[C@H](CSSC[C@H](NC(=O)[C@@H](N)Cc4ccc(O)cc4)C(=O)N[C@@H](CCC(N)=O)C(=O)N[C@@H](CCCCN)C(=O)N[C@@H](Cc4c[nH]c5ccccc45)C(=O)N[C@@H](CCSC)C(=O)N[C@@H](Cc4c[nH]c5ccccc45)C(=O)N[C@@H]([C@@H](C)O)C(=O)N3)NC2=O)C(=O)N[C@@H](CCCCN)C(=O)N[C@@H](CC(C)C)C(=O)N[C@@H](Cc2c[nH]c3ccccc23)C(=O)N1)[C@@H](C)CC)C(N)=O [L19 Glu mutant]
IC50 (human NaV1.7): > 10 µM | IC50 (human NaV1.4; [1]): > 10 µM | IC50 (human NaV1.5; [2]): > 10 µM

CC[C@H](C)[C@H](NC(=O)[C@@H](NC(=O)[C@H](CCCCN)NC(=O)[C@H](CCCNC(=N)N)NC(=O)[C@@H]1CSSC[C@@H]2NC(=O)[C@H](C)NC(=O)[C@H](CCCNC(=N)N)NC(=O)[C@H](CCCCN)NC(=O)[C@H](CO)NC(=O)[C@H](CC(=O)O)NC(=O)[C@@H]3CSSC[C@H](NC(=O)[C@H](CCCNC(=N)N)NC(=O)[C@H](CC(C)C)NC(=O)CNC(=O)[C@H](CCC(=O)O)NC(=O)[C@H](CSSC[C@H](NC(=O)[C@@H](N)CCC(=O)O)C(=O)N[C@@H](CCC(N)=O)C(=O)N[C@@H](CCCCN)C(=O)N[C@@H](Cc4c[nH]c5ccccc45)C(=O)N[C@@H](CCSC)C(=O)N[C@@H](Cc4c[nH]c5ccccc45)C(=O)N[C@@H]([C@@H](C)O)C(=O)N3)NC2=O)C(=O)N[C@@H](CCCCN)C(=O)N[C@@H](CC(C)C)C(=O)N[C@@H](Cc2c[nH]c3ccccc23)C(=O)N1)[C@@H](C)CC)C(N)=O [Y1 Glu mutant]
IC50 (human NaV1.4; [1]): 0.235 µM | IC50 (human NaV1.5; [3]): > 5 µM

CC[C@H](C)[C@H](NC(=O)[C@@H](NC(=O)[C@H](CCCCN)NC(=O)[C@H](CCCNC(=N)N)NC(=O)[C@@H]1CSSC[C@@H]2NC(=O)[C@H](C)NC(=O)[C@H](CCCNC(=N)N)NC(=O)[C@H](CCCCN)NC(=O)[C@H](CO)NC(=O)[C@H](CC(=O)O)NC(=O)[C@@H]3CSSC[C@H](NC(=O)[C@H](C)NC(=O)[C@H](CC(C)C)NC(=O)CNC(=O)[C@H](CCC(=O)O)NC(=O)[C@H](CSSC[C@H](NC(=O)[C@@H](N)Cc4ccc(O)cc4)C(=O)N[C@@H](CCC(N)=O)C(=O)N[C@@H](CCCCN)C(=O)N[C@@H](Cc4c[nH]c5ccccc45)C(=O)N[C@@H](CCSC)C(=O)N[C@@H](Cc4c[nH]c5ccccc45)C(=O)N[C@@H]([C@@H](C)O)C(=O)N3)NC2=O)C(=O)N[C@@H](CCCCN)C(=O)N[C@@H](CC(C)C)C(=O)N[C@@H](Cc2c[nH]c3ccccc23)C(=O)N1)[C@@H](C)CC)C(N)=O [R20 Ala mutant]
IC50 (human NaV1.4; [4]): 0.425 µM | IC50 (human NaV1.5; [5]): 4.64 µM

CC[C@H](C)[C@H](NC(=O)[C@@H](NC(=O)[C@H](CCCCN)NC(=O)[C@H](CCCNC(=N)N)NC(=O)[C@@H]1CSSC[C@@H]2NC(=O)[C@H](C)NC(=O)[C@H](CCCNC(=N)N)NC(=O)[C@H](CCCCN)NC(=O)[C@H](CO)NC(=O)[C@H](CC(=O)O)NC(=O)[C@@H]3CSSC[C@H](NC(=O)[C@H](CCCNC(=N)N)NC(=O)[C@H](CC(C)C)NC(=O)CNC(=O)[C@H](CCC(=O)O)NC(=O)[C@H](CSSC[C@H](NC(=O)[C@@H](N)Cc4ccc(O)cc4)C(=O)N[C@@H](CCC(N)=O)C(=O)N[C@@H](CCCCN)C(=O)N[C@@H](Cc4c[nH]c5ccccc45)C(=O)N[C@@H](CCSC)C(=O)N[C@@H](Cc4c[nH]c5ccccc45)C(=O)N[C@@H](C)C(=O)N3)NC2=O)C(=O)N[C@@H](CCCCN)C(=O)N[C@@H](CC(C)C)C(=O)N[C@@H](Cc2c[nH]c3ccccc23)C(=O)N1)[C@@H](C)CC)C(N)=O [T8 Ala mutant]
IC50 (human NaV1.5; [5]): > 5 µM

CC[C@H](C)[C@H](NC(=O)[C@@H](NC(=O)[C@H](CCCCN)NC(=O)[C@H](CCCNC(=N)N)NC(=O)[C@@H]1CSSC[C@@H]2NC(=O)[C@H](C)NC(=O)[C@H](CCCNC(=N)N)NC(=O)[C@H](CCCCN)NC(=O)[C@H](CO)NC(=O)[C@H](CC(=O)O)NC(=O)[C@@H]3CSSC[C@H](NC(=O)[C@H](CCCNC(=N)N)NC(=O)[C@H](CC(C)C)NC(=O)CNC(=O)[C@H](CCC(=O)O)NC(=O)[C@H](CSSC[C@H](NC(=O)[C@@H](N)Cc4ccc(O)cc4)C(=O)N[C@@H](CCC(N)=O)C(=O)N[C@@H](CCCCN)C(=O)N[C@@H](Cc4c[nH]c5ccccc45)C(=O)N[C@@H](C)C(=O)N[C@@H](Cc4c[nH]c5ccccc45)C(=O)N[C@@H]([C@@H](C)O)C(=O)N3)NC2=O)C(=O)N[C@@H](CCCCN)C(=O)N[C@@H](CC(C)C)C(=O)N[C@@H](Cc2c[nH]c3ccccc23)C(=O)N1)[C@@H](C)CC)C(N)=O [M6 Ala mutant]
IC50 (human NaV1.5; [5]): > 5 µM

CC[C@H](C)[C@H](NC(=O)[C@@H](NC(=O)[C@H](CCCCN)NC(=O)[C@H](CCCNC(=N)N)NC(=O)[C@@H]1CSSC[C@@H]2NC(=O)[C@H](C)NC(=O)[C@H](CCCNC(=N)N)NC(=O)[C@H](CCCCN)NC(=O)[C@H](CO)NC(=O)[C@H](CC(=O)O)NC(=O)[C@@H]3CSSC[C@H](NC(=O)[C@H](CCCNC(=N)N)NC(=O)[C@H](CC(C)C)NC(=O)[C@H](C)NC(=O)[C@H](CCC(=O)O)NC(=O)[C@H](CSSC[C@H](NC(=O)[C@@H](N)Cc4ccc(O)cc4)C(=O)N[C@@H](CCC(N)=O)C(=O)N[C@@H](CCCCN)C(=O)N[C@@H](Cc4c[nH]c5ccccc45)C(=O)N[C@@H](CCSC)C(=O)N[C@@H](Cc4c[nH]c5ccccc45)C(=O)N[C@@H]([C@@H](C)O)C(=O)N3)NC2=O)C(=O)N[C@@H](CCCCN)C(=O)N[C@@H](CC(C)C)C(=O)N[C@@H](Cc2c[nH]c3ccccc23)C(=O)N1)[C@@H](C)CC)C(N)=O [G18 Ala mutant]
IC50 (human NaV1.4; [4]): 0.265 µM | IC50 (human NaV1.5; [5]): > 5 µM

CC[C@H](C)[C@H](NC(=O)[C@@H](NC(=O)[C@H](CCCCN)NC(=O)[C@H](CCCNC(=N)N)NC(=O)[C@@H]1CSSC[C@@H]2NC(=O)[C@H](CCC(=O)O)NC(=O)[C@H](CCCNC(=N)N)NC(=O)[C@H](CCCCN)NC(=O)[C@H](CO)NC(=O)[C@H](CC(=O)O)NC(=O)[C@@H]3CSSC[C@H](NC(=O)[C@H](CCCNC(=N)N)NC(=O)[C@H](CC(C)C)NC(=O)CNC(=O)[C@H](CCC(=O)O)NC(=O)[C@H](CSSC[C@H](NC(=O)[C@@H](N)Cc4ccc(O)cc4)C(=O)N[C@@H](CCC(N)=O)C(=O)N[C@@H](CCCCN)C(=O)N[C@@H](Cc4c[nH]c5ccccc45)C(=O)N[C@@H](CCSC)C(=O)N[C@@H](Cc4c[nH]c5ccccc45)C(=O)N[C@@H]([C@@H](C)O)C(=O)N3)NC2=O)C(=O)N[C@@H](CCCCN)C(=O)N[C@@H](CC(C)C)C(=O)N[C@@H](Cc2c[nH]c3ccccc23)C(=O)N1)[C@@H](C)CC)C(N)=O [A14 Glu mutant]
IC50 (human NaV1.5; [3]): > 5 µM

CC[C@H](C)[C@H](NC(=O)[C@@H](NC(=O)[C@H](CCCCN)NC(=O)[C@H](CCCNC(=N)N)NC(=O)[C@@H]1CSSC[C@@H]2NC(=O)[C@H](C)NC(=O)[C@H](CCCNC(=N)N)NC(=O)[C@H](CCCCN)NC(=O)[C@H](CO)NC(=O)[C@H](CC(=O)O)NC(=O)[C@@H]3CSSC[C@H](NC(=O)[C@H](CCCNC(=N)N)NC(=O)[C@H](CC(C)C)NC(=O)CNC(=O)[C@H](CCC(=O)O)NC(=O)[C@H](CSSC[C@H](NC(=O)[C@H](C)N)C(=O)N[C@@H](CCC(N)=O)C(=O)N[C@@H](CCCCN)C(=O)N[C@@H](Cc4c[nH]c5ccccc45)C(=O)N[C@@H](CCSC)C(=O)N[C@@H](Cc4c[nH]c5ccccc45)C(=O)N[C@@H]([C@@H](C)O)C(=O)N3)NC2=O)C(=O)N[C@@H](CCCCN)C(=O)N[C@@H](CC(C)C)C(=O)N[C@@H](Cc2c[nH]c3ccccc23)C(=O)N1)[C@@H](C)CC)C(N)=O [Y1 Ala mutant]
IC50 (human NaV1.5; IWQ platform, single-residue Ala scan of JzTx-V, read-out: Ala mutant IWQ IC50 NaV1.5): 3.07 µM

CC[C@H](C)[C@H](NC(=O)[C@@H](NC(=O)[C@H](CCCCN)NC(=O)[C@H](CCCNC(=N)N)NC(=O)[C@@H]1CSSC[C@@H]2NC(=O)[C@H](C)NC(=O)[C@H](CCCNC(=N)N)NC(=O)[C@H](CCCCN)NC(=O)[C@H](CO)NC(=O)[C@H](CC(=O)O)NC(=O)[C@@H]3CSSC[C@H](NC(=O)[C@H](CCCNC(=N)N)NC(=O)[C@H](CC(C)C)NC(=O)CNC(=O)[C@H](CCC(=O)O)NC(=O)[C@H](CSSC[C@H](NC(=O)[C@@H](N)Cc4ccc(O)cc4)C(=O)N[C@@H](CCC(N)=O)C(=O)N[C@@H](CCCCN)C(=O)N[C@@H](Cc4c[nH]c5ccccc45)C(=O)N[C@@H](CCSC)C(=O)N[C@@H](Cc4c[nH]c5ccccc45)C(=O)N[C@@H]([C@@H](C)O)C(=O)N3)NC2=O)C(=O)N[C@@H](C)C(=O)N[C@@H](CC(C)C)C(=O)N[C@@H](Cc2c[nH]c3ccccc23)C(=O)N1)[C@@H](C)CC)C(N)=O [K22 Ala mutant]
IC50 (human NaV1.5; [5]): > 5 µM
